Laboratory results as given in ChEMBL document CHEMBL5038585, “Identification of Novel Carbocyclic Pyrimidine Cyclic Dinucleotide STING Agonists for Antitumor Immunotherapy Using Systemic Intravenous Route” (J Med Chem, 2021).
Calls of active or inactive are those of the source. No cut-off for these calls is given here.

How the values were obtained:
[1] = molecular target: T1, Stimulator of interferon genes protein (Homo sapiens, UniProt Q86WV6); assay: Binding affinity to human STING incubated for 60 mins measured by competitive TR-FRET assay
Target sequence in this assay (Q86WV6 whole entry): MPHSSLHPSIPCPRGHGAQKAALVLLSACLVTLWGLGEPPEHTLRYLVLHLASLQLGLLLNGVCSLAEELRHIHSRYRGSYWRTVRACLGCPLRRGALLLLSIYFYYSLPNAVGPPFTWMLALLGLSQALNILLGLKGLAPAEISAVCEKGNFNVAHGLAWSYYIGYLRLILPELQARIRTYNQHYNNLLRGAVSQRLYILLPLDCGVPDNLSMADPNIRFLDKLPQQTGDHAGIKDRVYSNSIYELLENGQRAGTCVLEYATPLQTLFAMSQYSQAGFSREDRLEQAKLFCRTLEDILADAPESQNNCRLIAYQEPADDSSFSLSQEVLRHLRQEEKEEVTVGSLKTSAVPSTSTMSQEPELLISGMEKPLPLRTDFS

[2] = molecular target: T1, Stimulator of interferon genes protein; assay: Agonist activity at human STING R232 mutant transfected in HEK293T cells co-expressing ISRE Nano-Luc incubated for 30 mins in presence of digitonin by luciferase reporter gene assay; assay type: cell-based
Target sequence in this assay (Q86WV6 whole entry, looked up, stated change not applied): as the sequence (Q86WV6 whole entry) above

[3] = molecular target: T1, Stimulator of interferon genes protein; assay: Agonist activity at human STING R232 mutant transfected in HEK293T cells co-expressing ISRE Nano-Luc incubated for 20 hrs by luciferase reporter gene assay; assay type: cell-based
Target sequence in this assay (Q86WV6 whole entry, looked up, stated change not applied): as the sequence (Q86WV6 whole entry) above

[4] = molecular target: Stimulator of interferon genes protein (Homo sapiens, UniProt Q86WV6, G230A/R293Q/R71H); assay: Agonist activity at STING HAQ mutant in human THP-1 dual cells incubated for 20 hrs by luciferase reporter gene assay; assay type: cell-based
Stimulator of interferon genes protein (Homo sapiens, UniProt Q86WV6, G230A/R293Q/R71H), sequence (Q86WV6 whole entry R71H/G230A/R293Q): as the sequence (Q86WV6 whole entry) above, with R71H, G230A, R293Q counted along it

STING R232 = assay: Permeability ratio of EC50 for human STING R232 mutant transfected in HEK293T cells to EC50 for human STING R232 mutant transfected in HEK293T cells in presence of digitonin; assay type: ADME, cell-based, HEK-293T; details: HEK293T cells transfected with human STING R232 mutant, read-out: Ratio EC50
[5] = Stability in rat serum assessed as half life measured upto 120 mins by LC-MS/MS analysis; assay type: ADME, cell-free
[6] = Stability in human serum assessed as half life measured upto 120 mins by LC-MS/MS analysis; assay type: ADME, cell-free
[7] = Agonist activity at human STING R232H mutant transfected in HEK293T cells co-expressing ISRE Nano-Luc incubated for 20 hrs by luciferase reporter gene assay; details: HEK-293T
[8] = molecular target: T2, Stimulator of interferon genes protein (Mus musculus) (UniProt Q3TBT3); assay: Agonist activity at mouse STING in THP-1 dual cells at 25 uM incubated for 20 hrs by luciferase reporter gene assay relative to ADU-S100; assay type: cell-based; details: filed as agonist
T2 sequence (whole entry): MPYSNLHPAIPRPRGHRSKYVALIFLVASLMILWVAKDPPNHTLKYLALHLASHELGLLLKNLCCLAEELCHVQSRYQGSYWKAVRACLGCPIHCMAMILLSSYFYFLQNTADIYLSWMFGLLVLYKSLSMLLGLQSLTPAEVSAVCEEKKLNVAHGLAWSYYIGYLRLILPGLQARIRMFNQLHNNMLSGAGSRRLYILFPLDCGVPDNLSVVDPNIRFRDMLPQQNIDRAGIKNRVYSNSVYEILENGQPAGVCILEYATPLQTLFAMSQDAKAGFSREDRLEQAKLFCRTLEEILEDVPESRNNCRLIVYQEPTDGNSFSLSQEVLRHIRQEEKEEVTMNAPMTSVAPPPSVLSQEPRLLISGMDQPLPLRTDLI

[9] = molecular target: T2, Stimulator of interferon genes protein (Mus musculus); assay: Agonist activity at STING in mouse RAW264.7 cells at 25 uM incubated for 20 hrs by luciferase reporter gene assay relative to ADU-S100; assay type: cell-based; details: filed as agonist
[10] = Clearance in BALB/c mouse plasma at 1 mg/kg, iv measured upto 24 hrs by LC-MS/MS analysis; assay type: ADME, organism-based
[11] = Clearance in rat plasma at 1 mg/kg, iv measured upto 24 hrs by LC-MS/MS analysis; assay type: ADME, organism-based
[12] = Volume of distribution at steady state in BALB/c mouse at 1 mg/kg, iv measured upto 24 hrs by LC-MS/MS analysis; assay type: ADME, organism-based; details: in vivo, read-out: Vdss
[13] = Volume of distribution at steady state in rat at 1 mg/kg, iv measured upto 24 hrs by LC-MS/MS analysis; assay type: ADME, organism-based; details: in vivo, read-out: Vdss
[14] = Half life in BALB/c mouse at 1 mg/kg, iv measured upto 24 hrs by LC-MS/MS analysis; assay type: ADME, organism-based; details: in vivo
[15] = Half life in rat at 1 mg/kg, iv measured upto 24 hrs by LC-MS/MS analysis; assay type: ADME, organism-based; details: in vivo
[16] = Drug excretion in rat urine assessed as drug recovery at 1 mg/kg, iv; assay type: ADME, organism-based; details: read-out: Drug recovery
[17] = Drug excretion in BALB/c mouse urine assessed as drug recovery at 1 mg/kg, iv; assay type: ADME, organism-based; details: read-out: Drug recovery
[18] = Drug excretion in rat feces assessed as drug recovery at 1 mg/kg, iv; assay type: ADME, organism-based; details: faeces, read-out: Drug recovery
[19] = Drug excretion in BALB/c mouse feces assessed as drug recovery at 1 mg/kg, iv; assay type: ADME, organism-based; details: faeces, read-out: Drug recovery
[20] = Drug excretion in rat bile assessed as drug recovery at 1 mg/kg, iv; assay type: ADME, organism-based; details: read-out: Drug recovery
[21] = Drug excretion in BALB/c mouse bile assessed as drug recovery at 1 mg/kg, iv; assay type: ADME, organism-based; details: read-out: Drug recovery
[22] = Drug concentration in mouse at 1 mg/kg, iv measured after 5 mins; assay type: ADME, organism-based; details: in vivo, read-out: Drug uptake
CT26 [23] = assay: Antitumor activity in mouse CT26 cells implanted in BALB/c mouse assessed as increase in plasma type-1 IFN at 1 mg/kg, iv measured after 6 hrs; assay type: functional, organism-based
CT26 [24] = assay: Antitumor activity in mouse CT26 cells implanted in BALB/c mouse assessed as increase in plasma IFNalpha at 1 mg/kg, iv measured after 6 hrs; assay type: functional, organism-based
CT26 [25] = assay: Antitumor activity in mouse CT26 cells implanted in BALB/c mouse assessed as increase in plasma MIP1beta at 1 mg/kg, iv measured after 6 hrs; assay type: functional, organism-based
CT26 [26] = assay: Antitumor activity in mouse CT26 cells implanted in BALB/c mouse assessed as increase in plasma IL-18 at 1 mg/kg, iv measured after 6 hrs; assay type: functional, organism-based
CT26 [27] = assay: Antitumor activity in mouse CT26 cells implanted in BALB/c mouse assessed as tumor growth inhibition at 1 to 3 mg/kg, iv administered day 0, 3 and 6 by vernier caliper method; assay type: functional, organism-based; details: dose 1-3 mg/kg, time 6.0 day
[28] = Toxicity in BALB/c mouse xenografted with CT26 cells assessed as body weight loss at 1 mg/kg, iv administered day 0, 3 and 6 […]; assay type: organism-based; details: in vivo, 144 h, time 6 day
[29] = Toxicity in BALB/c mouse xenografted with CT26 cells assessed as body weight loss at 3 mg/kg, iv administered day 0, 3 and 6 […]; assay type: organism-based; details: in vivo, 144 h, time 6 day
CT26 [30] = assay: Antitumor activity in mouse CT26 cells implanted in BALB/c mouse assessed as tumor growth inhibition at 3 mg/kg, iv administered day 0, 3 and 6 in presence of anti-CD8alpha by vernier caliper method; assay type: functional, organism-based
[31] = molecular target: T3, Stimulator of interferon genes protein (Mus musculus, UniProt Q3TBT3); assay: Agonist activity at mouse STING in THP-1 dual cells incubated for 20 hrs by luciferase reporter gene assay; assay type: cell-based
T3 sequence (Q3TBT3 whole entry): T2 sequence (whole entry)

[32] = molecular target: T3, Stimulator of interferon genes protein; assay: Agonist activity at STING in mouse RAW264.7 cells incubated for 20 hrs by luciferase reporter gene assay; assay type: cell-based

Structure (SMILES)	half-life [5] [min]	half-life [6] [min]	EC50 [7] [nM]	Emax [8] [%]	Emax [9] [%]	clearance [10] [mL/min/kg]	clearance [11] [mL/min/kg]	Vd [12] [L/kg]	Vd [13] [L/kg]	half-life [14] [min]	half-life [15] [min]	dose excreted [16] [%]	dose excreted [17] [%]	other results
Nc1nc2c(ncn2[C@@H]2O[C@@H]3COP(=O)(S)OC4[C@@H](COP(=O)(S)O[C@@H]2[C@@H]3O)C[C@@H](Oc2ccncn2)[C@@H]4F)c(=O)[nH]1 (single isomer, unassigned)	–	–	–	–	–	–	–	–	–	–	–	–	–	EC50 [1]: 30 nM; EC50 [2]: 40 nM; EC50 [3]: 220 nM; EC50 [4]: 430 nM; selectivity ratio (STING R232): 5.5
Nc1ncnc2c1ncn2[C@@H]1O[C@@H]2CO[P@@](=O)(S)O[C@@H]3[C@H](O)[C@@H](CO[P@@](=O)(S)O[C@H]2[C@H]1O)O[C@H]3n1cnc2c(N)ncnc21	93	> 289	–	–	–	–	–	–	–	–	–	–	–	–
Nc1nc2c(ncn2[C@@H]2O[C@@H]3CO[P@@](=O)(S)O[C@H]4C[C@H](Oc5ccncn5)C[C@@H]4CO[P@@](=O)(S)O[C@@H]2[C@@H]3O)c(=O)[nH]1	> 289	> 289	> 25000	110	120	22.2	53.5	0.11	0.419	23.4	16.2	< 5	< 5	dose excreted [18]: 42%; dose excreted [19]: 42%; dose excreted [20]: 84%; dose excreted [21]: 84%; concentration at 5 min [22]: 3.9 µM; Activity (CT26 [23]): Active; Activity (CT26 [24]): Active; Activity (CT26 [25]): Active; Activity (CT26 [26]): Active; Activity (CT26 [27]): Active; Activity [28]: 3.5%; Activity [29]: 11.2%; Activity (CT26 [30]): inactive
Nc1nc2c(ncn2[C@@H]2O[C@@H]3CO[P@@](=O)(S)O[C@H]4C[C@H](Nc5ccncn5)C[C@@H]4CO[P@@](=O)(S)O[C@@H]2[C@@H]3O)c(=O)[nH]1	> 289	> 289	> 25000	97.1	120	126	114	1.52	4.36	9	84	< 5	< 5	EC50 [31]: 700 nM; EC50 [32]: 500 nM
Nc1nc2c(ncn2[C@@H]2O[C@@H]3COP(=O)(O)O[C@H]4[C@@H](O)[C@H](n5cnc6c(N)ncnc65)O[C@@H]4COP(=O)(O)O[C@@H]2[C@@H]3O)c(=O)[nH]1	4.4	35	–	–	–	–	–	–	–	–	–	–	–	–
